The target in one data set is T1, human MMP-2 (Homo sapiens, UniProt P08253).
T1 construct: purchased Calbiochem 444213
T1 sequence (P08253 110-660): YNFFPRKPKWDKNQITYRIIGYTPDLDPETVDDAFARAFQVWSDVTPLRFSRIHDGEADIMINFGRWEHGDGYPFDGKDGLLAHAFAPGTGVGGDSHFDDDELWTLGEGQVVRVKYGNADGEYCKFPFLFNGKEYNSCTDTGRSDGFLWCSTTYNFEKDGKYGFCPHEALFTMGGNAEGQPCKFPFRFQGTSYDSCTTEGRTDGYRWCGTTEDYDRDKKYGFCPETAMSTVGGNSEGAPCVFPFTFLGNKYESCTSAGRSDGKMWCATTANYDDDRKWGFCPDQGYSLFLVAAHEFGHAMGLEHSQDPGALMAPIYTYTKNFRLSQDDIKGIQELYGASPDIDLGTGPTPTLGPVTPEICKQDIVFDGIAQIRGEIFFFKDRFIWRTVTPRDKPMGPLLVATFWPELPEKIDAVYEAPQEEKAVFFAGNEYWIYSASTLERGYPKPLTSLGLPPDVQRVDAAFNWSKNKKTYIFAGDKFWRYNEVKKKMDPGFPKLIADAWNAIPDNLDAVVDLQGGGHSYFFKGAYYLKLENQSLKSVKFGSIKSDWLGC
In words: MMP-2 inhibition test. It is filed as biochemical. The note with it: read-out: Inhibitory activity (IC50, nM) MMP-2. As to the method:
(§1) MMP inhibition tests can be carried out, for example, using a fluorescent synthetic substrate based on the methods described in Bickett et al. (D. Mark Bickett et al., Anal. Biochem., 1993, 212, 58-64) and Nagase et al. (H. Nagase et al., J. Biol. Chem., 1994, 269, 20952-20957). The method for each MMP inhibition test is shown below.
90 μL (5 ng) of human MMP-2 (Calbiochem #444213) was mixed with 10 μL of 10 mM APMA, and activated by reacting at 37° C. for 1 hour. 10 μL of the resultant enzyme solution was diluted to 90 μL with an assay buffer A. The mixture was added to 90 μL of a 20 μM fluorescent substrate (MOCAc((7-methoxycoumarin-4-yl)acetyl)-Pro-Leu-Gly-Leu-A2pr(Dnp)-Ala-Arg-NH2, Peptide Institute Inc., #3163-v) (SEQ ID NO: 3) prepared with an assay buffer B, and reacted at 37° C. for 5 hours. Enzyme activity was then determined by measuring with a fluorescence intensity meter (Labsystems, Fluoroskan Ascent) at an excitation wavelength of 320 nm and a measurement wavelength of 405 nm.
(§2) From the enzyme activity in the presence or the absence of the test substance, the inhibition rate was determined, and the 50% inhibitiory concentration (IC50) of the test substance was calculated.

Another data set has as its target T2, human MMP-14 (Homo sapiens, UniProt P50281).
T2 construct: purchased Calbiochem 475935
In words: MMP-14 inhibition test. The note with it: read-out: Inhibitory activity (IC50, nM) MMP-14. The data set is classed as biochemical. Here is the method:
as §1
90 μL (1.9 ng) of human MMP-14 (Calbiochem #475935) prepared with an assay buffer A was added to 90 μL of a 20 μM fluorescent substrate (Dnp-Pro-Cha-Gly-Cys(Me)-His-Ala-Lys(Nma)-NH2) (SEQ ID NO: 2) prepared with an assay buffer B, and reacted at 37° C. for 5 hours. Enzyme activity was then determined by measuring with a fluorescence intensity meter (Labsystems, Fluoroskan Ascent) at an excitation wavelength of 355 nm and a measurement wavelength of 460 nm.
as §2

A short description of data set [1]: Solubility test in the 2nd fluid for the disintegration test of the Japanese Pharmacopoeia. The data set is classed as physicochemical. The note with it: pH 6.8, aqueous buffer, thermodynamic from solid; pH6.8, shaken for 2 hours. Here is the method: Test substances (10.0 mg) were correctly weighed, and methanol was added to adjust to 10 mL. The solution was diluted by 10 times to prepare a solution of […].
In a centrifuge tube 5.0 mg of the test substance was weighed, added with 5.0 mL of the 2nd fluid for the disintegration test of the Japanese pharmacopoeia, supersonified for 3 minutes, and shaken for 2 hours thereafter. This solution was filitered with a membrane filter (0.2 μm), 500 μL the filtrate was measured, 500 μL of acetonitrile was added, and fully stirred to obtain the sample solution.
To 250 mL of 0.2 mol/L potassium dihydrogenphosphate aqueous solution, 118 mL of 0.2 mol/L sodium hydroxide aqueous solution and water was added to adjust to 1000 mL.
Using a high performance liquid chromatography, each of the sample solution for a calibration curve and sample solution for solubility measurement is measured twice to calculate an average area for each.
Based on the average area obtained in the above mentioned method, using an equation below to calculate a solubility. Solubility in the 2nd fluid for the disintegration test of the Japanese pharmacopoeia(μg/mL)=((P×2)/S)×100
S: Average area on the sample solution for a calibration curve
P: Average area on the sample solution for solubility measurement

Data set [2] in a line: Pharmacokinetic study after intravenous and percutaneous administration in hairless mice. It is filed as in vivo. Particulars: 1 w/v % Macrogol 400 solution, 50 μL/animal, occlusive. Here is the method:
Test substances (0.1 to 0.5 mg/5 mL/kg) were administered by bolus injection into the tail vein of hairless mice under anesthesia.
A 4 cm^2 administration site (2 cm×2 cm) was marked on the back skin of hairless mice under anesthesia (fed) using an oil-based marker. Test substances were applied to the administration site at 50 μL/animal (1 w/v % Macrogol 400 solution). Gauze (BEMCOT®) about 2 cm×2 cm in size was fixed using double-sided tape to an approximately 4 cm×4 cm polyethylene sheet, and the gauze face was placed over the face on which the test substance had been applied. An adhesive elastic bandage (Elastopore, about 10 cm) was stuck over the gauze to fix and protect the face on which the test substance had been applied. The mice were then returned to its cage. Twenty-four hours after administration, occlusive application was confirmed to have been properly carried out. […]
The cryopreserved plasma obtained by the above method was thawed at room temperature. After removing the protein using methanol, the concentration of the test substance in the plasma was measured. […]
Transdermal absorption rate was calculated using the following equation by calculating the AUC (area under the curve of the concentration in plasma) from the plasma concentration of the test substance measured by the method described above. […]

Structures are written as SMILES. Values after ≈ are worked out from the molar mass of the structure shown.

Regarding `Cc1cccn(CC2(c3ccc(F)c(F)c3)NC(=O)NC2=O)c1=O` (single isomer, unassigned; (+)) [(+)-5-(3,4-difluorophenyl)-5-[(3-methyl-2-oxopyridin-1(2H)-yl)methyl]imidazolidine-2,4-dione], the IC50 on human MMP-2 and at human MMP-14 was greater than 10000 nM each time. In data set [1], this molecule yielded a solubility at 2 h of 430 µg/mL (≈ 1290 µM). The “Transdermal absorbability after percutaneous administration” value in data set [2] is on record as “good transdermal absorbability”.

A word on the IC50: it is the concentration at which inhibition is half-maximal. The term solubility denotes how much of the substance goes into solution per volume.

The record behind these values is patent US9518041B2, “(+)-5-(3,4-difluorophenyl)-5-[(3-methyl-2-oxopyridin-1(2H)-yl)methyl]imidazolidine-2,4-dione and drug containing same” (KAKEN PHARMACEUTICAL CO., LTD., priority 2013, dated 2016).
